Data as given in ChEMBL document CHEMBL1201862, “PubChem BioAssay data set” (2004).
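Following 48 hours of exposure in 96-well plates, responses at five concentrations were used to interpolate endpoints linearly. GI50 is the concentration that inhibits growth by half.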 Calls of active or inactive are those of the source. No stated cut-off is given here; in the data, active = GI50 up to about 1.1 µM and inactive = higher.

What was measured:
Assay in all cases: growth of human tumour cells (NCI), 48 h
MDA-MB-231 = tested on: MDA-MB-231
UACC-257 = tested on: UACC-257
NCI-H226 = tested on: NCI-H226
CAKI-1 = tested on: CAKI-1
DU-145 = tested on: DU-145
SN12C = tested on: SN12C
A498 = tested on: A498
MOLT-4 = tested on: MOLT-4
Hs-578T = tested on: Hs-578T
SNB-19 = tested on: SNB-19
ACHN = tested on: ACHN
K562 = tested on: K562
HT-29 = tested on: HT-29
NCI-H23 = tested on: NCI-H23
MCF7 = tested on: MCF7
NCI/ADR-RES = tested on: NCI/ADR-RES
SK-OV-3 = tested on: SK-OV-3
SK-MEL-2 = tested on: SK-MEL-2
HCC 2998 = tested on: HCC 2998
KM12 = tested on: KM12

Row | Structure (SMILES) | GI50 (MDA-MB-231) | GI50 (UACC-257) | GI50 (NCI-H226) | GI50 (CAKI-1) | GI50 (DU-145) | GI50 (SN12C) | GI50 (A498) | GI50 (MOLT-4) | GI50 (Hs-578T) | GI50 (SNB-19) | GI50 (ACHN) | GI50 (K562) | GI50 (HT-29) | GI50 (NCI-H23) | GI50 (MCF7) | GI50 (NCI/ADR-RES) | GI50 (SK-OV-3) | GI50 (SK-MEL-2) | GI50 (HCC 2998) | GI50 (KM12)
1 | COC1OC2COC(c3ccccc3)OC2C(O)C1OC(=S)c1ccccc1 (configuration not stated) | 36.7 µM (inactive) | 50 µM (inactive) | 46.1 µM (inactive) | 24.4 µM (inactive) | 97.3 µM (inactive) | 21.8 µM (inactive) | 40.5 µM (inactive) | 70.6 µM (inactive) | 62.1 µM (inactive) | > 100 µM (inactive) | 24.3 µM (inactive) | 53.3 µM (inactive) | 20.5 µM (inactive) | 59.7 µM (inactive) | 36.3 µM (inactive) | 36.6 µM (inactive) | > 100 µM (inactive) | 53.3 µM (inactive) | – | –
2 | O=C(CNc1cccc(Cl)c1)Nn1c(-c2ccccc2)nc2ccccc2c1=O | 3.37 µM (inactive) | 14 µM (inactive) | 13.3 µM (inactive) | – | 16 µM (inactive) | 4.13 µM (inactive) | 19.5 µM (inactive) | 1.35 µM (inactive) | 19.2 µM (inactive) | 15.7 µM (inactive) | 13.6 µM (inactive) | 2.66 µM (inactive) | 5.9 µM (inactive) | 2.4 µM (inactive) | 2.04 µM (inactive) | – | 10.8 µM (inactive) | – | 10.4 µM (inactive) | 10.9 µM (inactive)
3 | CC(=O)OCC1(CNc2nc(N)ncc2C#N)CC(CCc2ccccc2)C1 (configuration not stated) | 10.4 µM (inactive) | > 100 µM (inactive) | 42 µM (inactive) | 4 µM (inactive) | 32.1 µM (inactive) | > 100 µM (inactive) | 21.9 µM (inactive) | 2.89 µM (inactive) | 23.9 µM (inactive) | – | 28.4 µM (inactive) | 2.2 µM (inactive) | > 100 µM (inactive) | 2.49 µM (inactive) | 12 µM (inactive) | 10.3 µM (inactive) | – | > 100 µM (inactive) | – | > 100 µM (inactive)
4 | NCOC(=O)Cc1ccc(Br)cc1 | > 100 µM (inactive) | > 100 µM (inactive) | > 100 µM (inactive) | – | > 100 µM (inactive) | > 100 µM (inactive) | > 100 µM (inactive) | 17.4 µM (inactive) | > 100 µM (inactive) | > 100 µM (inactive) | > 100 µM (inactive) | > 100 µM (inactive) | > 100 µM (inactive) | > 100 µM (inactive) | > 100 µM (inactive) | > 100 µM (inactive) | > 100 µM (inactive) | > 100 µM (inactive) | – | –
5 | CC1SC(=O)SC1C (configuration not stated) | > 100 µM (inactive) | > 100 µM (inactive) | – | – | – | > 100 µM (inactive) | – | > 100 µM (inactive) | > 100 µM (inactive) | > 100 µM (inactive) | > 100 µM (inactive) | > 100 µM (inactive) | – | – | > 100 µM (inactive) | > 100 µM (inactive) | > 100 µM (inactive) | – | > 100 µM (inactive) | > 100 µM (inactive)
6 | COc1ccc(OC)c2c(C(C)=O)cccc12 | > 100 µM (inactive) | > 100 µM (inactive) | 46.2 µM (inactive) | – | > 100 µM (inactive) | > 100 µM (inactive) | > 100 µM (inactive) | 81.8 µM (inactive) | 88.9 µM (inactive) | > 100 µM (inactive) | > 100 µM (inactive) | > 100 µM (inactive) | – | > 100 µM (inactive) | > 100 µM (inactive) | > 100 µM (inactive) | > 100 µM (inactive) | – | > 100 µM (inactive) | > 100 µM (inactive)
7 | COc1ccc2c(O)c1-c1c(OC)ccc(c1O)SSc1ccc(OC)c(c1O)-c1c(OC)ccc(c1O)SS2 | 44.3 µM (inactive) | > 100 µM (inactive) | 29.9 µM (inactive) | > 100 µM (inactive) | 29 µM (inactive) | > 100 µM (inactive) | > 100 µM (inactive) | > 100 µM (inactive) | 54.8 µM (inactive) | 60.4 µM (inactive) | 5.32 µM (inactive) | 5.2 µM (inactive) | > 100 µM (inactive) | – | > 100 µM (inactive) | – | > 100 µM (inactive) | > 100 µM (inactive) | – | 37.2 µM (inactive)
8 | CC(Cc1ccc(Cl)cc1Cl)NO (configuration not stated) | > 100 µM (inactive) | > 100 µM (inactive) | 46.3 µM (inactive) | > 100 µM (inactive) | > 100 µM (inactive) | 92.7 µM (inactive) | > 100 µM (inactive) | 83.6 µM (inactive) | 80 µM (inactive) | > 100 µM (inactive) | > 100 µM (inactive) | 83.9 µM (inactive) | > 100 µM (inactive) | > 100 µM (inactive) | > 100 µM (inactive) | > 100 µM (inactive) | > 100 µM (inactive) | > 100 µM (inactive) | – | > 100 µM (inactive)
9 | COc1cc(Nc2cnc3cc(F)c(F)cc3n2)cc(OC)c1OC | – | > 100 µM (inactive) | > 100 µM (inactive) | > 100 µM (inactive) | > 100 µM (inactive) | > 100 µM (inactive) | > 100 µM (inactive) | > 100 µM (inactive) | 63.2 µM (inactive) | > 100 µM (inactive) | > 100 µM (inactive) | – | > 100 µM (inactive) | 73.6 µM (inactive) | > 100 µM (inactive) | > 100 µM (inactive) | > 100 µM (inactive) | 84.3 µM (inactive) | – | 69.3 µM (inactive)
10 | Oc1ccc(/C=N/N=c2\[nH][nH]/c(=N\N=C\c3ccc(O)cc3O)c3ccccc23)c(O)c1 | 0.401 µM (active) | 0.428 µM (active) | – | 0.268 µM (active) | 0.338 µM (active) | 0.308 µM (active) | – | 0.0865 µM (active) | 0.29 µM (active) | 0.473 µM (active) | 0.21 µM (active) | 0.261 µM (active) | 0.331 µM (active) | 0.326 µM (active) | 0.274 µM (active) | 0.427 µM (active) | 0.428 µM (active) | 0.288 µM (active) | – | 0.275 µM (active)
11 | C/C(=C1/N=C(c2ccccc2)OC1=O)c1ccccc1 | > 100 µM (inactive) | > 100 µM (inactive) | > 100 µM (inactive) | > 100 µM (inactive) | > 100 µM (inactive) | > 100 µM (inactive) | > 100 µM (inactive) | 95.1 µM (inactive) | 46.3 µM (inactive) | > 100 µM (inactive) | 74.6 µM (inactive) | > 100 µM (inactive) | > 100 µM (inactive) | > 100 µM (inactive) | 82 µM (inactive) | – | > 100 µM (inactive) | > 100 µM (inactive) | > 100 µM (inactive) | 61.4 µM (inactive)
12 | CC(C)(Br)C(=O)/C=C/c1ccccc1 | 8.79 µM (inactive) | 14.1 µM (inactive) | 5 µM (inactive) | 6.12 µM (inactive) | 5.71 µM (inactive) | 6.21 µM (inactive) | 18.7 µM (inactive) | 1.41 µM (inactive) | 11.5 µM (inactive) | 22 µM (inactive) | 2.55 µM (inactive) | 1.55 µM (inactive) | 4.23 µM (inactive) | 1.94 µM (inactive) | 3.56 µM (inactive) | 17.6 µM (inactive) | 25.6 µM (inactive) | 1.83 µM (inactive) | – | 13.1 µM (inactive)
13 | Nc1nc(N)c2ncn(Cc3ccccc3CO)c2n1 | > 100 µM (inactive) | > 100 µM (inactive) | > 100 µM (inactive) | > 100 µM (inactive) | > 100 µM (inactive) | > 100 µM (inactive) | > 100 µM (inactive) | > 100 µM (inactive) | > 100 µM (inactive) | > 100 µM (inactive) | > 100 µM (inactive) | > 100 µM (inactive) | > 100 µM (inactive) | > 100 µM (inactive) | > 100 µM (inactive) | > 100 µM (inactive) | > 100 µM (inactive) | > 100 µM (inactive) | – | > 100 µM (inactive)
14 | CC1CC2=C(C1)C(C1(C)C(=O)CC3C(C1=O)C3(C)C)C(C)C2=O (configuration not stated) | > 100 µM (inactive) | > 100 µM (inactive) | > 100 µM (inactive) | > 100 µM (inactive) | > 100 µM (inactive) | > 100 µM (inactive) | > 100 µM (inactive) | 62.7 µM (inactive) | > 100 µM (inactive) | > 100 µM (inactive) | > 100 µM (inactive) | > 100 µM (inactive) | > 100 µM (inactive) | > 100 µM (inactive) | > 100 µM (inactive) | – | > 100 µM (inactive) | > 100 µM (inactive) | > 100 µM (inactive) | > 100 µM (inactive)
15 | Cn1c(=O)n2c(-c3ccccc3)c(-c3ccccc3)n2c1=O | > 100 µM (inactive) | > 100 µM (inactive) | > 100 µM (inactive) | > 100 µM (inactive) | – | > 100 µM (inactive) | > 100 µM (inactive) | > 100 µM (inactive) | > 100 µM (inactive) | > 100 µM (inactive) | > 100 µM (inactive) | > 100 µM (inactive) | > 100 µM (inactive) | > 100 µM (inactive) | > 100 µM (inactive) | > 100 µM (inactive) | > 100 µM (inactive) | > 100 µM (inactive) | > 100 µM (inactive) | > 100 µM (inactive)
16 | COC(=O)Cn1c(=O)oc2nc(-c3ccccc3)cc(C(F)(F)F)c21 | > 100 µM (inactive) | 95.9 µM (inactive) | 35.8 µM (inactive) | > 100 µM (inactive) | > 100 µM (inactive) | 56.6 µM (inactive) | > 100 µM (inactive) | 23.6 µM (inactive) | – | > 100 µM (inactive) | > 100 µM (inactive) | – | 32.8 µM (inactive) | > 100 µM (inactive) | > 100 µM (inactive) | 23.8 µM (inactive) | > 100 µM (inactive) | > 100 µM (inactive) | > 100 µM (inactive) | 69.8 µM (inactive)
